Measurements taken from US5961952A, “^99m Tc-tertiary-butyl isonitrile as breast tumor imaging agents” (DuPont Pharmaceuticals Company, priority 1997, dated 1999).

How the values were obtained:
[1] = system: SKBR3 tumor cells; experiment: Tumor cell washout kinetics (t1/2); type: cell-based, human; settings: washout from SKBR3 cells; for 1/2 life SKBR3 Tumor Cells: second phase of biphasic kinetics
Protocol: (§1) Two cell lines are grown on cover slips: SKBR3 human breast tumor with known high membrane potential, and an epithelial cell line (CV1) of low membrane potential. Breast tumor cells (SKBR3) and normal epithelial cells (CV-1) are grown on cover slips (5×10^5 cells) and incubated for 60 min with 100 μCi of ^99m Tc-isonitrile. The slips are then incubated for 120 min in nonisotopic medium with repeated rinses. ^99m Tc activity remaining on the slips is determined at 0, 0.5, 1, 1.5, and 2 hr. Results are expressed as the ratio of tumor/normal ^99m Tc activity at each of the times. Values are the mean of 4 slips per cell line.
The half lives were also calculated for the washout of ^99m Tc-isonitriles from SKBR3 cells.

[2] = system: breast tumors; settings: J. Nucl. Med. 1993, 34:149P; cited from earlier work
[3] = system: HBL100 nontransformed breast cells; experiment: Uptake assay in HBL100 nontransformed breast cells; type: cell-based; settings: average of two assays, variance 5-20%
[4] = system: SKBR3 breast tumor cells; experiment: Uptake assay in SKBR3 breast tumor cells; type: cell-based, human; settings: average of two assays, variance 5-20%
Protocol: (§2) The cell uptake assay protocol was developed by Delmon-Moingeon et al.^10 Breast tumor cells (SKBR3) were incubated in media over a 2 hr time course with each test sample. This line has been identified as having high membrane potential and has been characterized for uptake of ^99m Tc-sestamibi. […] The first time point (10 min.) was used to compare compounds, as this was felt to represent the non-equilibrium kinetics of delivery experienced in vivo.

[5] = system: breast tumors in c-neu oncomice; experiment: Pairwise imaging in the c-neu oncomouse; type: in vivo, mouse; settings: for Mean of Tumor Ratio Test/99mTc-sestamibi +/- Std Dev: paired imaging, c-neu oncomice, 6 animals (14 tumors), ** p < .01
Text: The pairwise model was designed to directly compare the images of ^99m Tc-TBI with ^99m Tc-sestamibi. The same mouse was imaged at two separate times within 96 hr of each other with the test compound at one time and ^99m Tc-sestamibi at the other. The order of test and reference compound injected were random, but each study included at least an n=2 in each direction.
Female c-neu oncomice (18-30 g) and FVB wildtype mice were used in the pairwise studies. Mice with breast tumors between 1-15 mm were selected for imaging. Animals were anesthetized with sodium pentobarbital (IP) at a dose of 80 mg/kg. Tumors were measured with dial calipers and recorded on mouse templates. The tail was immersed in hot water for 1-2 min, wiped with alcohol, and injected via the tail vein (28 gauge insulin needle) with […] (0.15mL) of prepared ^99m Tc-TBI. The mouse was secured in a supine position on the dissection board with limbs and head extended to expose the chest area for optimal imaging of breast tumors. All image acquisitions were performed using a Picker Digital Dyna Gamma Camera, a Siemens MicroDelta terminal/MAXDELTA system, and a custom-made 1 mm pinhole collimator mounted on the gamma camera. The general static acquisition protocol was employed, using an acquisition matrix of 256×256 pixels, in word mode. The mouse was placed at a distance of 3 cm from the surface of the dissection board to the bottom of the collimator. The anterior view of the upper torso of the animal was acquired at each time point. Consecutive images were collected starting at 10 min post injection. Six 10 min images were collected at the 3 cm distance and one 10 min image was collected of the whole body at 15 cm to determine any tail vein activity. […] Total activity injected was determined by measuring the syringe before and after injection, then corrected for decay back to the time of injection. The pairwise images within each study were normalized for injected dose and regions of interest were taken over breast tumors and the heart. The mean ratio of ^99m Tc-TBI to ^99m Tc-sestamibi in the tumor was reported.

[6] = system: SKBR3 human breast tumor cells vs CV-1 normal epithelial cells; experiment: Washout assay: retention in an adherent cell assay, ratio of tumor (SKBR3)/normal (CV-1); type: cell-based; settings: for Retention, ratio of tumor/normal 99mTc activity: SKBR3/CV-1, mean of 4 slips per cell line
Protocol: as §1
The washout assay characterizes the retention of compounds having gained access to the cell. A significant feature of this assay is that each cover slip was given a cell count at the end of the assay, and results were corrected for actual cell density. Because of high nonspecific binding to the coverslips, early times during washout are not meaningful, and so actual uptake and pharmacokinetics during the first phase of washout are not available. The results, however, are useful in predicting prolonged retention of compounds after blood levels have cleared.

[7] = system: A549 lung tumor cells; experiment: Uptake assay in A549 lung tumor cells; type: cell-based; settings: average of two assays, variance 5-20%
Protocol: [Worded in the source for another cell line; this cell line is reported under the same test.] as §2

[8] = system: breast adenocarcinomas in c-neu oncomice; experiment: Dual label whole body autoradiography and histochemistry; type: in vivo, mouse; settings: c-neu OncoMouse, whole body autoradiography
Protocol: The test compound was given i.v. to a transgenic c-neu mouse (OncoMouse™). This mouse has been genetically constructed to spontaneously produce breast tumors. The tumors develop with the same cribriform pattern as observed in human tumors and have a similar pattern of blood supply.
Female c-neu oncomice bearing breast adenocarcinomas >0.5 cm in diameter were injected i.v. with 1-3 mCi of ^99m Tc-TBI and 5 μCi of C-14 2-deoxy-D-glucose. The mice were sacrificed at 30 min post injection by CO2 inhalation. The carcass was embedded and frozen in embedding medium and 20μ frozen sections were obtained in a cryotome. Autoradiograms of sections and standards were obtained on Kodak SB5 X-ray film. Adjacent sections (5μ) were obtained and stained with hemotoxylin and eosin (H&E). Images were digitized on a LOATS video-based computerized densitometer, and regions of intersect were obtained (% ID/g).

[9] = system: heart; settings: Example 5 of Bergstein et al, U.S. Pat. No. 4,988,827; compared with ether isonitriles; cited from earlier work

Compound: [C-]#[N+]CC(C)(C)OC.[C-]#[N+]CC(C)(C)OC.[C-]#[N+]CC(C)(C)OC.[C-]#[N+]CC(C)(C)OC.[C-]#[N+]CC(C)(C)OC.[C-]#[N+]CC(C)(C)OC.[Tc] [MIBI, reference compound]
- 1/2 life SKBR3 Tumor Cells [1]: 120.5
- sensitivity for imaging breast tumors [2]: > 90%
- specificity for imaging breast tumors [2]: > 70%
- Uptake (% of total) ([3]; HBL100, 10 minutes): 0.9%
- Uptake (% of total) ([3]; HBL100, 20 minutes): 3.4%
- Uptake (% of total) ([3]; HBL100, 60 minutes): 8.8%
- Uptake (% of total) ([4]; SKBR3, 10 minutes): 1.8%
- Uptake (% of total) ([4]; SKBR3, 20 minutes): 4.5%
- Uptake (% of total) ([4]; SKBR3, 60 minutes): 17.2%
- Mean of Tumor Ratio Test/99mTc-sestamibi +/- Std Dev [5]: 1
- Retention, ratio of tumor/normal 99mTc activity ([6]; washout time 0 hr): 38
- Retention, ratio of tumor/normal 99mTc activity ([6]; washout time 0.5 hr): 36
- Retention, ratio of tumor/normal 99mTc activity ([6]; washout time 1 hr): 34
- Retention, ratio of tumor/normal 99mTc activity ([6]; washout time 1.5 hr): 29
- Retention, ratio of tumor/normal 99mTc activity ([6]; washout time 2 hr): 26
- Uptake (% of total) ([7]; A549, 10 minutes): 0.7%
- Uptake (% of total) ([7]; A549, 20 minutes): 2.5%
- Uptake (% of total) ([7]; A549, 60 minutes): 7.3%
- correlation between breast tumor retention and tissue viability [8]: strong correlation

Compound: ^99m Tc-tertiary-butyl isonitrile complex [TBI]
- increase in t1/2 (longer retention) compared with 99mTc-sestamibi [1]: 6 fold
- 1/2 life SKBR3 Tumor Cells [1]: 656.0
- Uptake (% of total) ([3]; HBL100, 10 minutes): 61.3%
- Uptake (% of total) ([3]; HBL100, 20 minutes): 62.4%
- Uptake (% of total) ([3]; HBL100, 60 minutes): 64.3%
- heart/liver and heart/lung uptake ratios [9]: low heart/liver and heart/lung uptake ratios
- Uptake (% of total) ([4]; SKBR3, 10 minutes): 71.1%
- Uptake (% of total) ([4]; SKBR3, 20 minutes): 68.1%
- Uptake (% of total) ([4]; SKBR3, 60 minutes): 67%
- tumor uptake and retention in vivo, relative to 99mTc-sestamibi ([5]; in words): significantly increased tumor uptake and retention in vivo
- Mean of Tumor Ratio Test/99mTc-sestamibi +/- Std Dev [5]: 1.33 +/-0.43
- increase in tumor retention/uptake compared with 99mTc-sestamibi ([5]; pairwise imaging, c-neu OncoMouse, p<0.01): 133%
- retention in tumor cells during washout ([6]; tumor cell culture, in words): prolonged retention in tumor cells during washout
- Retention, ratio of tumor/normal 99mTc activity ([6]; washout time 0 hr): 12
- Retention, ratio of tumor/normal 99mTc activity ([6]; washout time 0.5 hr): 24
- Retention, ratio of tumor/normal 99mTc activity ([6]; washout time 1 hr): 31
- Retention, ratio of tumor/normal 99mTc activity ([6]; washout time 1.5 hr): 35
- Retention, ratio of tumor/normal 99mTc activity ([6]; washout time 2 hr): 37
- Uptake (% of total) ([7]; A549, 10 minutes): 49.8%
- Uptake (% of total) ([7]; A549, 20 minutes): 45.3%
- Uptake (% of total) ([7]; A549, 60 minutes): 43.1%
